Active and inactive are the calls of the source. The calls are words filed in the database; no cut-off is given here.
Key:
[1] = biological target: Sodium-dependent noradrenaline transporter (Homo sapiens) (UniProt P23975); assay: Inhibition of human NET at 1 uM
[2] = biological target: 5-hydroxytryptamine receptor 3A (Rattus norvegicus) (UniProt P35563); assay: Agonist activity at rat 5HT3A receptor expressed in xenopus oocytes at 0.1 to 100000 nM by electrophysiological method; settings: Oocyte
[3] = biological target: T1, 5-hydroxytryptamine receptor 3A (Homo sapiens, UniProt P46098); assay: Antagonist activity at human 5HT3A receptor expressed in xenopus oocytes assessed as inhibition of 5HT-induced effect by electrophysiological method; type: functional, cell-based, Oocyte
T1 sequence (P46098 whole entry): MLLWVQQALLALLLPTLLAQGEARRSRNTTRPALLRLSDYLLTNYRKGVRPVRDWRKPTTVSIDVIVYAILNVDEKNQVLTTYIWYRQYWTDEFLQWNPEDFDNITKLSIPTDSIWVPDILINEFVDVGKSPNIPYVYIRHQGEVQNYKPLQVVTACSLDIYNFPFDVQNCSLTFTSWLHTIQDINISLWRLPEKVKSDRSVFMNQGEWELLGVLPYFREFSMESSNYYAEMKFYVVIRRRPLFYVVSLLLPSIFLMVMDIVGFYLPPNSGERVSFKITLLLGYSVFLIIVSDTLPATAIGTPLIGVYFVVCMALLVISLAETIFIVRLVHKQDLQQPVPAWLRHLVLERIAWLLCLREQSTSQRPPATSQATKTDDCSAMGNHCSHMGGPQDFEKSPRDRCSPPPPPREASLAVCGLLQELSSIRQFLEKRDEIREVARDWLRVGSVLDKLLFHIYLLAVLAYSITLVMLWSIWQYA

[4] = biological target: 5-hydroxytryptamine receptor 1B (Homo sapiens, UniProt P28222); assay: Partial agonist activity at human 5HT1B receptor expressed in CHO cells assessed as [35S]GTPgammaS binding relative to 5HT
Cytochrome P450 3A4 = Cytochrome P450 3A4 (Homo sapiens, UniProt P08684); assay: Inhibition of human recombinant CYP3A4 using resorufin benzyl ether after 30 mins by fluorescence spectrophotometric analysis; type: ADME
Rattus norvegicus [5] = assay: Hepatic clearance in rat at 1 mg/kg, iv; type: ADME, organism-based, Liver; set-up: dose 1 mg/kg, route intravenous; settings: in vivo
[6] = biological target: 5-hydroxytryptamine receptor 1A (Rattus norvegicus) (UniProt P19327); assay: Binding affinity to rat 5HT1A receptor
[7] = Inhibition of NET-mediated [3H]NE in rat synaptosomes by scintillation counting; type: subcellular, Brain
[8] = biological target: T1, 5-hydroxytryptamine receptor 3A; assay: Displacement of [3H]granisetron from human 5HT3A receptor expressed in HEK293 cells by filter binding assay; type: cell-based
Rattus norvegicus [9] = assay: Antidepression activity in Harlan rat assessed as increase in extracellular 5HT level in ventral hippocampus region at 5 to 10 mg/kg, sc measured from 40 to 180 mins by microdialysis method
Liver microsomes = assay: Intrinsic clearance in rat liver microsomes at 1 uM after 60 mins by LC-MS/MS analysis; type: ADME, Microsome; settings: 1 h
[10] = biological target: T2, 5-hydroxytryptamine receptor 3A (Homo sapiens) (UniProt P46098); assay: Agonist activity at human 5HT3A receptor expressed in xenopus oocytes by electrophysiological method relative to 5HT; settings: Oocyte
T2 sequence (whole entry): T1 sequence (P46098 whole entry)

[11] = biological target: 5-hydroxytryptamine receptor 7 (Homo sapiens, UniProt P34969); assay: Antagonist activity at human 5HT7 receptor expressed in HEK-CNG cells assessed as effect on cAMP production by fluorescence based assay; type: functional, cell-based
Chain of 5-hydroxytryptamine receptor 7 (P34969 whole entry): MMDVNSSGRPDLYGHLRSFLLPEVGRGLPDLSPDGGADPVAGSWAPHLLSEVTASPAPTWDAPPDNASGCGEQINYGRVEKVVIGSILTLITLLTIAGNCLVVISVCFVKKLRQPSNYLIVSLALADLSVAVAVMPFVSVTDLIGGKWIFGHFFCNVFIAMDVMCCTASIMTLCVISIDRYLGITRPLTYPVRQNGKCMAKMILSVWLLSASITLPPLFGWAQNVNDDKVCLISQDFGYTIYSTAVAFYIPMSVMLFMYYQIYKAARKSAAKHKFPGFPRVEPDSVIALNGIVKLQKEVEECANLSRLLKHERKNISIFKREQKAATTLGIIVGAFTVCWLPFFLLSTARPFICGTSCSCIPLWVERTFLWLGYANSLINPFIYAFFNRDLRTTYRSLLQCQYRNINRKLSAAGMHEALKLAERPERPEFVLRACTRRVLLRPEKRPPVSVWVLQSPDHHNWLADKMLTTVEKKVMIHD

Chain of 5-hydroxytryptamine receptor 1A (Rattus norvegicus) (P19327 whole entry, looked up): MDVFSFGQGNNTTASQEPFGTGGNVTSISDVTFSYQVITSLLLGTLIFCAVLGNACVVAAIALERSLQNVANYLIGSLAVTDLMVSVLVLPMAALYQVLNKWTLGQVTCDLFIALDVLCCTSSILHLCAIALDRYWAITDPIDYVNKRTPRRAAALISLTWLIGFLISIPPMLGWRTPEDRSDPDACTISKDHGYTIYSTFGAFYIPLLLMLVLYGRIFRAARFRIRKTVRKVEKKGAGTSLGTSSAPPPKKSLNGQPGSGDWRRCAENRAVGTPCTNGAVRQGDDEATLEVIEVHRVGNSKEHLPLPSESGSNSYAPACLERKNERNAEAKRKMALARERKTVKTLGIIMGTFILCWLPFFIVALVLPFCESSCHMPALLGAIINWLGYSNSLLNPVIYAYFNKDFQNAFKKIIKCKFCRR
Chain of Sodium-dependent noradrenaline transporter (Homo sapiens) (P23975 whole entry): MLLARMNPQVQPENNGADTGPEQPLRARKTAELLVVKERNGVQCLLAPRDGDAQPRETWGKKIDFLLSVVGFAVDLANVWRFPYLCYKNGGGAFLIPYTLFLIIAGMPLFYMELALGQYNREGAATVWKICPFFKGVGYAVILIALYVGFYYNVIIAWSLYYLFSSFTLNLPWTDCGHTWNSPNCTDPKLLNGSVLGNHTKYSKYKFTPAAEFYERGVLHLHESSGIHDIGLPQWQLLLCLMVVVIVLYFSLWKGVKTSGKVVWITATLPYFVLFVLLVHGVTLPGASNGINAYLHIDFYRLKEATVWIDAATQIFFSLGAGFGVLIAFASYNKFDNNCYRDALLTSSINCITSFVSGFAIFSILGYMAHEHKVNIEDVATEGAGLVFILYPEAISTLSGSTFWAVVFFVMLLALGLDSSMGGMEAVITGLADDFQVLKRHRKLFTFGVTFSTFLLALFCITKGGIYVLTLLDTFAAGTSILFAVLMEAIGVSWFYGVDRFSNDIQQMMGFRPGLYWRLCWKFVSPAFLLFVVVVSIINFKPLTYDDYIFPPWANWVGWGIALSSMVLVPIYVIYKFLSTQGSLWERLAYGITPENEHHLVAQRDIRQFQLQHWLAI
Chain of Cytochrome P450 3A4 (P08684 whole entry): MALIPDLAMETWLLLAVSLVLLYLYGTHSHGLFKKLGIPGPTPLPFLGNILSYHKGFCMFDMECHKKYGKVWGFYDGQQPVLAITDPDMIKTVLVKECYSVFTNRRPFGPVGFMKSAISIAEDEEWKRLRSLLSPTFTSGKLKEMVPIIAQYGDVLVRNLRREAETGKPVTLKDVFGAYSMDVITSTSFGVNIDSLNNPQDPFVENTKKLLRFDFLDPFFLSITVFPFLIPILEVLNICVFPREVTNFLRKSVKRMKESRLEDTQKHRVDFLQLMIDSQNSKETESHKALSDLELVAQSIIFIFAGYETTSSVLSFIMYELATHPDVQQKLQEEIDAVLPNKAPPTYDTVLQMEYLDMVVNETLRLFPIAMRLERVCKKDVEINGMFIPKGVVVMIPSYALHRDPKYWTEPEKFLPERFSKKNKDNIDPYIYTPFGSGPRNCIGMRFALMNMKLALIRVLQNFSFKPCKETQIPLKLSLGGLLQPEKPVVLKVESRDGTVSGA
Chain of 5-hydroxytryptamine receptor 1B (P28222 whole entry): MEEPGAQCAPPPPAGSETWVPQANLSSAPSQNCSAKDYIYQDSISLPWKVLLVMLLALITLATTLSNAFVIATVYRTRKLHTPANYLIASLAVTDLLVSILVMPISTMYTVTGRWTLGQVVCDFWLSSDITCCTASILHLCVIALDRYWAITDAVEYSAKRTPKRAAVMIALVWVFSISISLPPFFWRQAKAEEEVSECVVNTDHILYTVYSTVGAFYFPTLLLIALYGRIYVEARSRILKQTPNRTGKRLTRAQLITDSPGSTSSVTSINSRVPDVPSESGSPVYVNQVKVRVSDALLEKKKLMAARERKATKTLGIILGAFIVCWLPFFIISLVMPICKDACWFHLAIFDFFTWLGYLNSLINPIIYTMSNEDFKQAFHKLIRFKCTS
Chain of 5-hydroxytryptamine receptor 3A (Rattus norvegicus) (P35563 whole entry): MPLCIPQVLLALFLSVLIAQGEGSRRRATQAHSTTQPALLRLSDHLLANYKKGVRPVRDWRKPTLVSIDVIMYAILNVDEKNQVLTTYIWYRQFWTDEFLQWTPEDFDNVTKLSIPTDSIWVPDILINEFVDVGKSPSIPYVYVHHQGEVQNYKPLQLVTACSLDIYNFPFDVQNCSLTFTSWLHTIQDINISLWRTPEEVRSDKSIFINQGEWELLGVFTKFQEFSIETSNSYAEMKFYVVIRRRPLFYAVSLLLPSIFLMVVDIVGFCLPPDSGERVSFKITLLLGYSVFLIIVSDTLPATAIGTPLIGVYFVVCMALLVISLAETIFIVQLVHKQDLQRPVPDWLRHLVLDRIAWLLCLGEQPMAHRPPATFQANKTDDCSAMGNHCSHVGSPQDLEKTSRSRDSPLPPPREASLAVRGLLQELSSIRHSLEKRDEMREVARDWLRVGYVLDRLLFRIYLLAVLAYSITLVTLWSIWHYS

With `Cc1ccc(Sc2ccccc2N2CCNCC2)c(C)c1.Cl` the inhibition [1] was 88%, the Activity [2] was “inactive” and the IC50 [3] was 12 nM. It also gave an Efficacy [4] of 55%, an IC50 (Cytochrome P450 3A4) of 10000 nM and a CLH (Rattus norvegicus [5]) of 118 mL/min/kg. It also gave a Ki [6] of 230 nM, an IC50 [7] of 140 nM and a Ki [8] of 23 nM. The Activity (Rattus norvegicus [9]) was “Active”, the CLH (Liver microsomes) was 55 mL/min and the Efficacy [10] was 64%. For the same compound, the Ki [11] was 450 nM.
